Reference: patent publication US20080045592A1, “Method of inhibiting growth and proliferation of listeria monocytogenes using levulinate” (Utah State University, priority 2006, published 2008)
Like-named read-outs stand apart in the source and are kept apart here.

Legend:
[1] = system: 5 strain cocktail of L. monocytogenes; conditions: for inhibiting growth of L. monocytogenes, compared with sodium lactate alone or sodium lactate combined with sodium diacetate: 2° C., comparators at 2%; for growth of L. monocytogenes: entire 12 weeks of storage at 2° C.
[2] = system: pathogenic bacteria (including, but not limited to, Listeria monocytogenes); conditions: 0.5, 1.0, 2.0% applied at temperatures greater than 54° C. (68, 77° C.); comparators 2% at 54° C.
Experimental: Samples are vacuum packaged and stored at 4° C. for 12 hours, and pathogen counts are determined.

[3] = system: pathogenic bacteria (including, but not limited to, Listeria monocytogene); conditions: addition or application to any food, stored at 4 to 8° C. for up to 16 weeks
Experimental: Pathogen counts are determined at 0, 2, 4, 8, 12, and 16 weeks.

[4] = system: cocktail of 5 pathogenic strains of L. monocytogenes; conditions: bologna slices surface contacted with 1 to 3% solutions, stored at 4° C. for 16 weeks
Description: This experiment tests the residual anti-Listeria activity imparted by topical application of levulinate to ready-to-eat meat product. In this experiment, levulinic acid is topically applied to a ready-to-eat meat product, and residual anti-Listeria activity followed in a post-treatment challenge. Briefly, bologna slices are surface contacted (spray, wash, or dips) with solutions of 1 to 3% levulinic […] acid. The slices are inoculated with a cocktail of 5 pathogenic strains of L. monocytogenes. Samples are vacuum packaged and stored at 4° C. for 16 weeks. Pathogen counts are determined at 0, 2, 4, 8, 12 and 16 weeks.

[5] = system: pathogenic bacteria including, but not limited to, Listeria monocytogenes; conditions: 2% applied at 54° C. to carcass tissue, stored at 4° C. for 12 hours
Experimental: This experiment tests the extent of decontamination achieved by topical application of levulinic acid to carcass meats as compared to lactic and acetic acids. Briefly, carcass tissues samples from beef, pork, lamb, and poultry (or any other species) are inoculated with pathogenic bacteria including, but not limited to, Listeria monocytogenes. Levulinic acid (2%), lactic acid (2%), and acetic acid (2%) are independently applied at 54° C. to individual meat samples by washing, dipping, or spraying. Samples are vacuum packaged and stored at 4° C. for 12 hours, and pathogen counts are determined.

[6] = system: pathogenic bacteria (including, but not limited to Listeria monocytogenes); conditions: 2% applied at 54° C. to carcass tissues, stored 4 to 8° C. for 16 weeks
Experimental: This experiment tests the extent of residual anti-pathogenic activity of levulinic acid (2%) topically applied to carcasses by dipping, spraying, or washing as compared to lactic acid (2%) or acetic acid (2%). Briefly, levulinic acid, lactic acid and acetic acid are independently applied at 54° C. to samples of carcass tissues from beef, pork, lamb, and poultry (or any other species) by topical application. Samples are inoculated with pathogenic bacteria (including, but not limited to Listeria monocytogenes), vacuum packaged, and stored (4 to 8° C.) for 16 weeks. Pathogen counts are determined at 0, 2, 4, 8, 12, and 16 weeks.

[7] = system: 5 strain cocktail of L. monocytogenes; conditions: for inhibition of growth of L. monocytogenes, compared with sodium lactate alone or sodium lactate combined with sodium diacetate: 2° C., comparators at 2%; for growth of L. monocytogenes: entire 12 weeks of storage at 2° C.

CC(=O)CCC(=O)O [levulinate]
peak levels of growth of L. monocytogenes ([1]; 1% in turkey product, after 12 weeks of storage at 2° C.): greatly inhibited
growth of L. monocytogenes compared to the control ([1]; 1% in turkey product, vacuum packaged, stored at 2° C., two trials averaged): delayed growth

CC(=O)CCC(=O)O [levulinic acid, 4-oxopentanoic acid]
initial surface decontamination activity against pathogenic bacteria as compared to fixed concentrations of lactic acid or acetic acid at a fixed temperature [2]: significant initial surface decontamination activity
initial decontamination and residual activity against pathogenic bacteria [3]: significant initial decontamination and residual activity
proliferation of Listeria bacteria in treated meat samples [4]: significant decrease
decontamination of pathogens as compared to lactic acid and acetic acid [5]: equal or greater decontamination
residual anti-pathogenic activity as compared to lactic acid and acetic acid [6]: equal or greater residual anti-pathogenic activity

CC(=O)CCC(=O)[O-].[Na+] [sodium levulinate]
inhibition of growth of L. monocytogenes, compared with sodium lactate alone or sodium lactate combined with sodium diacetate ([7]; 1% in bologna): as inhibitory
growth of L. monocytogenes ([7]; 1% in bologna): completely inhibited growth
inhibition of growth of L. monocytogenes, compared with sodium lactate alone or sodium lactate combined with sodium diacetate ([7]; 2% in bologna): as inhibitory
growth of L. monocytogenes ([7]; 2% in bologna): completely inhibited growth
inhibition of growth of L. monocytogenes, compared with sodium lactate alone or sodium lactate combined with sodium diacetate ([7]; 3% in bologna): as inhibitory
growth of L. monocytogenes ([7]; 3% in bologna): completely inhibited growth
inhibiting growth of L. monocytogenes, compared with sodium lactate alone or sodium lactate combined with sodium diacetate ([1]; 2% in turkey product): more effective
growth of L. monocytogenes ([1]; 2% in turkey product): completely inhibited growth
inhibiting growth of L. monocytogenes, compared with sodium lactate alone or sodium lactate combined with sodium diacetate ([1]; 3% in turkey product): more effective
growth of L. monocytogenes ([1]; 3% in turkey product): completely inhibited growth
